Results published in patent US12318386B2, “Combination of XPO1 inhibitors and second agents for the treatment of prostate cancer” (Karyopharm Therapeutics Inc., priority 2018, dated 2025).

Legend:
AR [1] = test: AR mRNA expression by real-time RT-qPCR in 22Rv1 cells; type: cell-based; details: 200 nM, 48 hours, vs control before treatment
Protocol: (§1) Prostate cancer cell line 22Rv1 was treated with KPT-8602 and the effect of the treatment on the expression of AR and AR splice variant AR-v7 was determined. 22Rv1 cells were treated with 200 nM KPT-8602 for 48 hours and the mRNA expression levels of AR and AR-v7 before (control) and after treatment were measured by real-time RT-qPCR using High Capacity cDNA Reverse Transcription Kit and SYBR Green Master Mixture from Applied Biosystems (Waltham, MA).

AR-v7 = AR-v7 mRNA expression by real-time RT-qPCR in 22Rv1 cells; type: cell-based; details: 200 nM, 48 hours, vs control before treatment
Protocol: as §1

AR [2] = test: Western blot of AR protein levels; type: cell-based; details: 22Rv1 cells, 250 nM, 72 hours
Protocol: (§2) Total proteins were subjected to 10 or 14% SDS-PAGE, and electrophoretically transferred to nitrocellulose membrane. The membranes were incubated with specific primary antibodies, and subsequently incubated with secondary antibody conjugated with peroxidase (Bio-rad, Hercules, CA). The signal was detected using the chemiluminescent detection system (PIERCE).

ARv = test: Western blot of ARv protein levels; type: cell-based; details: 22Rv1 cells, 250 nM, 72 hours
Protocol: as §2

[3] = system: 22Rv1 prostate cancer xenograft; test: 22Rv1 prostate cancer xenograft model in CB.17 SCID mice; type: in vivo; details: 15 mg/kg, QDx5/week
Protocol: The effect of KPT-8602 (15 mg/kg, QDx5/week) in a 22Rv1 prostate cancer xenograft model in CB.17 SCID mice was evaluated. Mouse weights and tumor size were monitored three times a week. Each mouse was euthanized at the end of study (Day 35) or when tumor volume reached 1000 mm^3, whichever comes first.

[4] = system: xenograft samples derived from 22Rv1 cells; test: Immunohistochemistry of 22Rv1 xenograft samples; type: in vivo, mice
Excerpt: Increased nuclear staining of tumor suppressor proteins Rb, p21, p53, APC and SMAD4 were also observed in samples treated with KPT-8602.
A tissue microarray (TMA) was constructed with tumor samples collected from 22Rv1 mouse prostate cancer cell. Paraffin sections of the TMA were processed ans stained with antibodies using a Biogenex 16000 automated stainer. Digital images of the slides were obtained through an Aperio AT Turbo scanner 20×. The following antibodies were used for immunohistochemistry staining: Cleaved Caspase 3 (Cell Singaling Technology, 9661), p21 (Cell Signaling Technology, 2947), APC (Abcam, ab15270), Ki67 (Cell Marque, 275R-18), Rb (Abcam, ab181616, p53 (Santa Cruz, sc-126), and SMAD4 (Santa Cruz, sc-7966).

[5] = system: Relapsed/Refractory Metastatic Castration Resistant Prostate Cancer (mCRPC); test: Clinical trial in relapsed/refractory mCRPC, KPT-8602 alone and with abiraterone; type: in vivo, human
Protocol: • 1. Histologically confirmed adenocarcinoma of the prostate with archival tumor tissue available for molecular analyses. • 2. Surgically or medically castrated, with testosterone levels of <50 ng/dL (<2.0 nM). • 3. Documented mCRPC progression as assessed by the Investigator with one of the following: • a. Prostate specific antigen (PSA) progression defined by a minimum of 3 rising PSA levels (at approximately Day −30 and approximately Day −45) with an interval of >1 week between each determination. The PSA values at the Screening visit should be >2 μg/L (>2 ng/mL); patients on systemic glucocorticoids for control of symptoms must have documented PSA progression by Prostate Cancer Working Group 3 (PCWG3) while on systemic glucocorticoids prior to commencing C1D1 of treatment. • b. Radiographic progression of soft tissue disease by modified RECIST criteria 1.1 or of bone metastasis with 2 or more documented new bone lesions on a bone scan with or without PSA progression. • 4. Initial response (per modified PCWG3 Guidelines) to second generation anti-hormonal therapy (examples: abiraterone, enzalutamide, TAK 700), but later relapsed. Disease relapse would be defined as progressive disease at the time of entry per inclusion criterion 3. • 5. Zero to 2 previous taxane-based chemotherapy regimens. • 6. At least 2 weeks from completion of any radiotherapy including a single fraction of radiotherapy for the purposes of palliation (confined to one field) is permitted. • 7. Patients should not be transfusion dependent. • 8. Albumin>2.5 g/dL. • 9. Adequate hematopoietic function: ANC≥1000/mm^3, hemoglobin (Hb)≥9.0 g/dL, and platelet count≥100,000/mm^3. • 10. Eastern Cooperative Oncology Group (ECOG) performance status of ≤1. • 11. Life expectancy of ≥4 months. Additional Criteria for Combination Therapy Patients (KPT-8602 and Abiraterone) • 12. Patients currently receiving treatment with abiraterone and appropriate to continue in the opinion of the Investigator (some patients may be progressing). Patients must also have been on and continue on a stable dose of corticosteroids (prednisone or dexamethasone) for 30 days prior to C1D1. B. Patient Characteristics and Demographics
Patients treated with KPT-8602 alone received oral KPT-8602 for 5 days per week (QDx5) at dose levels of 20 and 30 mg. Patients treated with KPT-8602 and abiraterone received oral KPT-8602 for 5 days per week (QDx5) at dose levels of 20 and 30 mg and the dose and schedule of abiraterone and corticosteroids that they were receiving at the time of enrollment. For example, a typical dose of ZYTIGA (abiraterone acetate) is 1000 mg orally once daily with prednisone 5 mg orally twice daily. A full cycle was 28 days long. A representative cycle of KPT-8602 dosing is oral administration 5 out of 7 consecutive days in a week for a 28-day cycle (e.g., Days 1-5, 8-12, 15-19 and 22-26 of each 28-day cycle).
Responses were assessed using RECIST v 1.1 criteria once every 28-day cycle. PR: Partial Response, SD: Stable Disease, PD: Progressive Disease, DCR: Disease Control Rate. 7 Non-evaluable patients: 2AE, 2 patient decision, 2 physician decision, 1 patient non-compliant.
All patients had their disease assessed per modified PCWG3 Guidelines including RECIST v1.1 (see below) by the following tests at pre-determined the time points. • PSA: Disease specific clinical lab assessment • Testosterone: Disease specific clinical lab assessment • Bone scan and CT (or MRI) scan of the abdomen and pelvis (RECIST v.1.1): Patients will receive a bone scan to monitor and assess bone disease progression and CT (or MRI) of the abdomen and pelvis (and chest, if indicated) to monitor and assess soft tissue disease progression per PCWG3 including RECIST v.1.1. […]

[6] = RECIST v1.1, evaluable patients, KPT-8602 20 and 30 mg QDx5

Compound: NC(=O)/C(=C/n1cnc(-c2cc(C(F)(F)F)cc(C(F)(F)F)c2)n1)c1cncnc1 [KPT-8602]
- mRNA expression of AR (AR [1]): significantly inhibited
- mRNA expression of AR-v7 (AR-v7): significantly inhibited
- protein levels of AR (AR [2]): significantly decreased
- protein levels of ARv (ARv): significantly decreased
- survival [3]: prolongs
- tumor growth [3]: significantly inhibits
- median OS (overall survival) ([3]; Kaplan-Meier, end of study Day 35, vehicle 20 days): undefined
- % TGI (tumor growth inhibition) on Day 16 ([3]; compared to vehicle): 87%
- nuclear staining of tumor suppressor protein APC [4]: Increased
- nuclear staining of tumor suppressor protein Rb [4]: Increased
- nuclear staining of tumor suppressor protein SMAD4 [4]: Increased
- nuclear staining of tumor suppressor protein p21 [4]: Increased
- nuclear staining of tumor suppressor protein p53 [4]: Increased
- apoptotic molecule (Cleaved Caspase 3) ([4]; compared to vehicle controls): increased
- cell proliferation marker (Ki67) ([4]; compared to vehicle controls): decreased
- median PFS ([5]; Kaplan-Meier analysis, evaluable patients): 5.9 months
- DCR (PR + SD) SD ≥ 8 weeks, % of patients [5, 6]: 82%
- DCR (PR + SD) SD ≥ 8 weeks, number of patients [5, 6]: 9
- DCR (PR + SD) SD ≥ 16 weeks, % of patients [5, 6]: 55%
- DCR (PR + SD) SD ≥ 16 weeks, number of patients [5, 6]: 6
- PD (Progressive Disease), % of patients [5, 6]: (18%)
- PD (Progressive Disease), number of patients [5, 6]: 2
- PR (Partial Response), % of patients [5, 6]: (9%)
- PR (Partial Response), number of patients [5, 6]: 1
- Median ToT (Time on Treatment) ([5]; evaluable patients, 20 mg KPT-8602): 96 days
- Median ToT (Time on Treatment) ([5]; evaluable patients, 30 mg KPT-8602): 134 days
- Median ToT (Time on Treatment) ([5]; evaluable patients, all doses (20 and 30 mg KPT-8602)): 96 days
